The subject of experiment [1] is MDA-MB-361 human breast cancer xenografts. Kind of experiment: Antitumor activity, multiple dosing schedules, MDA-MB-361 xenografts (Example 41). It is filed as in vivo, Mus musculus. The conditions noted are these: Day 28. The method, then:
Compound A was prepared in 100% PEG400 every 5-7 days and stored at approximately 25° C., shielded from light. The control article used in this study was 100% PEG400.
Low passage MDA-MB-361 cells were grown in Dulbecco's Modified Eagle's Medium (DMEM) media supplemented with 20% fetal bovine serum (FBS) and 1× penicillin/streptomycin (Invitrogen) until approximately 80% confluency was reached. Prior to injection, the cells were detached with Trypsin (Invitrogen), washed twice with phosphate buffered saline (PBS), and resuspended in RPMI (Roswell Park Memorial Institute) media (Invitrogen) without supplements. Cells were resuspended to a final concentration of 10.0×10^7 cells/mL in DMEM media without supplements, with 50% Matrigel (BD Biosciences). MDA-MB-361 cells (10.0×10^6 cells per animal in 0.1-mL injection volume) were implanted SC into the flank of female athymic nude mice. The animals used in this study are described in the following table.
4-5 week old female athymic nude mice were inoculated SC in flank (cell suspension in serum free DMEM and 50% Matrigel) with 10.0×10^6 MDA-MB-361 cells. Tumor growth was monitored with vernier calipers. The mean TV (MTV) was calculated using the formula V=W^2×L/2. When the MTV reached approximately 280 mm^3, the animals were randomized into 14 treatment groups (n=5/group). […] Tumor growth and body weight were measured twice per week. Percent TGI and body weight change were calculated on Day 28. Treatment started on Day 0 for 28 days. Antitumor activity was determined on day 28 of treatment by calculating the percent TGI using
Percent TGI=(mean tumor volume [MTV] of the control group−MTV of a treated group)/MTV of the control group×100. Equation 1
The differences in the tumor growth trends over time between pairs of treatment groups were assessed using linear mixed effects regression models. These models account for the fact that each animal was measured at multiple time points. A separate model was fit for each comparison, and the area under the curve (AUC) values for each treatment group were calculated using the predicted values from the model. The percent decrease in AUC (ΔAUC) relative to the reference group was then calculated.
Drug combinations were assessed for synergy using observed AUC values. The change in AUC relative to the control was calculated for both single agent treatment groups as well as the combination group. The interaction between the two compounds was then assessed by comparing the change in AUC observed in the combination group to the sum of the changes observed in both single agents. The results can be divided into four categories: synergistic, additive, sub-additive, and antagonistic. Further details regarding combination analyses are provided in the appendix. All p values less than 0.05 were considered significant.

For experiment [2] the test system is unchanged. Briefly: Antitumor activity and tumor regrowth, MDA-MB-361 xenografts (Example 42). It is filed as in vivo, Mus musculus. The conditions noted are these: for MTV on Day 65: n = 4; for % TGI on Day 65: based on the control group on Day 65; for TGI: Day 29. The protocol:
(room temperature), shielded from light. The test article Compound A was prepared in 5% NMP+95% PEG400 every 5 to 7 days and stored at approximately 25° C. (room temperature), shielded from light. The control article used in this study was 5% NMP+95% PEG400. Compounds were completely dissolved in NMP by sonication, followed by the addition of an appropriate volume of PEG400, and the final solution was vortexed and sonicated to ensure thorough mixing.
Low-passage MDA-MB-361 cells were grown in Eagle's Minimal Essential Medium (EMEM) media supplemented with 20% fetal bovine serum (FBS) and 1× penicillin/streptomycin (Invitrogen, Carlsbad, Calif., USA) until approximately 80% confluency was reached. Before injection, the cells were detached with GIBCO® trypsin (Invitrogen), washed twice with phosphate-buffered saline (PBS), and resuspended in Roswell Park Memorial Institute (RPMI) media (Invitrogen) without supplements. Cells were resuspended to a final concentration of 5×10^7 cells/mL in RPMI media without supplements. MDA-MB-361 cells (5.0×10^6 cells/animal in 0.1-mL injection volume) were implanted SC into the flank of female athymic nu/nu nude mice. The animals used in this study are described in the following table.
Female 5 to 6-week old female (athymic nu/nu) nude mice were inoculated SC in the flank with 5.0×10^6 MDA-MB-361 cells. Tumor growth was monitored with vernier calipers. The MTV was calculated using the formula V=W^2×L÷2. When the MTV reached approximately 235 mm^3, the animals were randomized into 4 treatment groups (n=8/group). Treatment started on Day 0. […] Tumor growth and body weight were measured twice weekly. Percent TGI and body weight change were calculated on Day 29. Four mice from each group were euthanized on Day 29 and tissues were harvested for pharmacodynamic studies. The remaining mice continued on study until Day 65, and tumor size and body weight in these mice were measured every 9 to 11 days.
Antitumor activity was determined by calculating the percent TGI using Equation 1: Percent TGI)=(MTV of the control group−MTV of a treated group) MTV of the control group×100
Tumor growth delay was determined by calculating the time until MTV in a given treatment group reached 1000 mm^3 versus the time until MTV in the control group reached 1000 mm^3.
The differences in trends of tumor growth over time between pairs of treatment groups were assessed using linear mixed-effects regression models. These models account for the fact that each animal was measured at multiple time points. A separate model was fit for each comparison, and the AUC for each treatment group was calculated using the predicted values from the model. The percent decrease in AUC (ΔAUC) relative to the reference group was then calculated.
A statistical analysis was performed with a linear mixed-effects regression model that takes into account the differences in trends of tumor growth between control and treated samples. Differences among mice were treated as random effects, and a compound symmetry covariance structure was used to model the variability between repeated tumor measurements for each mouse. Treatment comparisons were performed by using the fitted curves from the model to calculate the ΔAUC. The significance of the ΔAUC was assessed using permutation testing. All p values less than 0.05 were considered significant.
A combination score calculation was used to address the question of whether the effects of the combination treatments were more than additive (synergistic), additive, or subadditive (antagonistic) relative to the individual treatments. […] All p values less than 0.05 were considered significant.

Values joined by “and” are separate entries in the source; they are usually repeats but may differ in a detail not shown here. Identical values can stand only once.

Usually TGI stands for how far tumour growth fell short of that in controls.

On to `Nc1nc2cc(-c3ccc4ncc(C(=O)N5CCOCC5)n4c3)ccc2o1` [Compound A], for which the TGI in experiment [1] (60 mg/kg QD PO) stood at 84.5%; in experiment [1] (70 mg/kg QD 3on/4off PO), 76.0%; in experiment [1] (140 mg/kg QD 3on/4off PO), 84.2%; in experiment [1] (210 mg/kg QW PO), 64.7%; in experiment [2] (60.0 mg/kg PO QD) it was 77.4%. Besides, the “MTV on Day 65” value in experiment [2] (60 mg/kg PO QD until Day 29, regrowth) was 500 mm^3 and 511.4 ± 568^ mm^3. The “% TGI on Day 65” value in experiment [2] (60 mg/kg PO QD until Day 29) stood at 69.5%.
Take `CC(C)n1nc(-c2ccc3oc(N)nc3c2)c2c(N)ncnc21` [Compound B]: the TGI in experiment [1] (0.3 mg/kg QD PO) is 71.1%; in experiment [1] (1.0 mg/kg QD 3on/4off PO) it was 63.6%; in experiment [1] (3.0 mg/kg QW PO), 52.7%; in experiment [2] (0.3 mg/kg PO QD for 30 days), 71.1%. The “MTV on Day 65” value in experiment [2] (0.3 mg/kg PO QD until Day 29, regrowth) came to 649.6 ± 457.7 mm^3. The “% TGI on Day 65” value in experiment [2] (0.3 mg/kg PO QD until Day 29) is reported as 61.3%. For the same compound, in experiment [2] (0.3 mg/kg PO QD, n = 8), the “MTV on Day 29” value is 210.9 mm^3 and 210.9 ± 103.3 mm^3.

The values are drawn from patent US20150087627A1, “COMBINATION OF KINASE INHIBITORS AND USES THEREOF” (Intellikine LLC, priority 2011, published 2015).
